target: Growth factor receptor-bound protein 2 (Homo sapiens, UniProt P62993); assay: Inhibition of Growth factor receptor bound protein 2 SH2 domain binding in ELISA
Sequence (P62993 whole entry, the tested form may be a part): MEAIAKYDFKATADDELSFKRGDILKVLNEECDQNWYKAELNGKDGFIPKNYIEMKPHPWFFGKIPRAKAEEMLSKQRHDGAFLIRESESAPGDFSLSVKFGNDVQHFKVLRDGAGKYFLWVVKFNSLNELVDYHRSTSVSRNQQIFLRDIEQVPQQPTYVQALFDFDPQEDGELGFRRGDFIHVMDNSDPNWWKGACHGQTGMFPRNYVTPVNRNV

Compound | IC50 [nM]
CC(=O)N[C@@H](Cc1ccc(CP(=O)(O)O)cc1)C(=O)NC1(C(=O)N[C@@H](CC(N)=O)C(=O)NCCCc2cccc3ccccc23)CCCCC1 | 55
NC(=O)C[C@@H]1NC(=O)C2(CCCCC2)NC(=O)C[C@@H](c2ccc(CP(=O)(O)O)cc2)/C=C/C[C@@H](Cc2cccc3ccccc23)CNC1=O | 20
NC(=O)C[C@H](NC(=O)C1(NC(=O)CCc2ccc(CP(=O)(O)O)cc2)CCCCC1)C(=O)NCCCc1cccc2ccccc12 | 2000
NC(=O)C[C@H](NC(=O)C1(NC(=O)[C@H](Cc2ccc(CP(=O)(O)O)cc2)NC(=O)C(=O)O)CCCCC1)C(=O)NCCCc1cccc2ccccc12 | 20
